From publication PMC6268315, “Investigating the Spectrum of Biological Activity of Substituted Quinoline-2-Carboxamides and Their Isosteres ^†” (Molecules, 2012)
≈ marks a conversion by molar mass, not a printed value.

Each compound was assayed on Mycobacterium tuberculosis CUH071 (assay: In vitro antimycobacterial evaluation (alamarBlue)). Settings: 168 h, clinical isolate CUH071 with partial INH and PZA resistance, 7 days, read-out: MIC/IC90 M. tuberculosis.
Format: cell-based
For CC(C)NC(=O)c1ccc2ccccc2n1 [Compound 1, N-Isopropylquinoline-2-carboxamide], the MIC was 280 µM (≈ 60 µg/mL). With CCCCCCCCCCCCNC(=O)c1ccc2ccccc2n1 [Compound 2, N-Dodecylquinoline-2-carboxamide] the MIC was 367 µM (≈ 125 µg/mL). With O=C(c1ccc2ccccc2n1)N1CCCC1 [Compound 3, 2-(Pyrrolidin-1-ylcarbonyl)quinoline] the MIC was 552 µM (≈ 125 µg/mL). For O=C(NC1CCCC1)c1ccc2ccccc2n1 [Compound 5, N-Cyclopentylquinoline-2-carboxamide], the MIC was 491 µM (≈ 118 µg/mL). O=C(NC1CCCCC1)c1ccc2ccccc2n1 [Compound 6, N-Cyclohexylquinoline-2-carboxamide] gave an MIC of 125 µM (≈ 31.8 µg/mL). Work on O=C(NC1CCCCCC1)c1ccc2ccccc2n1 [Compound 7, N-Cycloheptylquinoline-2-carboxamide] yielded an MIC of 111 µM (≈ 29.8 µg/mL). With O=C(NCCc1ccccc1)c1ccc2ccccc2n1 [Compound 11, N-(2-Phenylethyl)quinoline-2-carboxamide] the MIC was 109 µM (≈ 30.1 µg/mL). For Cc1cccc(NC(=O)c2ccc3ccccc3n2)c1 [Compound 14b, N-(3-Methylphenyl)quinoline-2-carboxamide], the MIC was 469 µM (≈ 123 µg/mL). In the case of O=C(c1ccc2ccccc2c1)N1CCCC1 [Compound 22, 1-(2-Naphthoyl)pyrrolidine], the MIC is reported as 554 µM (≈ 125 µg/mL). Work on COc1ccccc1NC(=O)c1ccc2ccccc2c1 [Compound 32a, N-(2-Methoxyphenyl)-2-naphthamide] yielded an MIC of 901 µM (≈ 250 µg/mL). NNC(=O)c1ccncc1 [INH, isoniazid, reference compound] gave an MIC of over 729 µM. NC(=O)c1cnccn1 [PZA, pyrazinamide, reference compound] showed an MIC of over 812 µM.
